Experimental findings from US10301305B2 (priority 2014, dated 2019) are described below.

Structures are written as SMILES. Structures can show the parent of a compound that is named as a salt.

Common to all, as to assay type: biochemical
The target of one test is E. feacium DltA (Enterococcus faecium, UniProt Q3XZT7). Put plainly: in vitro DltA activity assay (luminescence), E. faecium DltA. The note with it: recombinant DltA, 30 min pre-incubation, 0.5 mM D-Alanine, 0.5-5 μM ATP; read-out: E. feacium DltA IC50. In short, it runs like this:
(§1)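 His-tagged recombinant DltA (expressed in E. coli BL21, Ni-NTA purified) pre-incubated 30 min with inhibitor in 50 mM Hepes pH 8.0, MgCl2, KCl, Triton X-100, DTT. Reaction with 0.5 mM D-alanine, 0.5–5 µM ATP and pyrophosphatase for 1–2 h at RT, then residual ATP read by luciferase luminescence. IC50 from 6–10 concentrations, quench-corrected.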

The target in another test is E. feacalis DltA (Enterococcus faecalis, UniProt Q830N0). Nature of the test: in vitro DltA activity assay (luminescence), E. faecalis DltA. The note with it: recombinant DltA, 30 min pre-incubation, 0.5 mM D-Alanine, 0.5-5 μM ATP; read-out: E. feacalis DltA IC50. In short, it runs like this:
as §1

The target of a further test is S. aureus DltA (Staphylococcus aureus (strain NCTC 8325 / PS 47), UniProt Q2FZW6). Nature of the test: in vitro DltA activity assay (luminescence), S. aureus DltA. The following applies: recombinant DltA, 30 min pre-incubation, 0.5 mM D-Alanine, 0.5-5 μM ATP; read-out: S. aureus DltA IC50. In short, it runs like this:
as §1

A further test addresses S. Agalactiae DltA (Streptococcus agalactiae serotype III (strain NEM316), UniProt Q8VM67). Nature of the test: in vitro DltA activity assay (luminescence), S. agalactiae DltA. The following applies: recombinant DltA, 30 min pre-incubation, 0.5 mM D-Alanine, 0.5-5 μM ATP; read-out: S. Agalactiae DltA IC50. In a few lines: as §1

Sequence of E. feacium DltA (Q3XZT7 1-504): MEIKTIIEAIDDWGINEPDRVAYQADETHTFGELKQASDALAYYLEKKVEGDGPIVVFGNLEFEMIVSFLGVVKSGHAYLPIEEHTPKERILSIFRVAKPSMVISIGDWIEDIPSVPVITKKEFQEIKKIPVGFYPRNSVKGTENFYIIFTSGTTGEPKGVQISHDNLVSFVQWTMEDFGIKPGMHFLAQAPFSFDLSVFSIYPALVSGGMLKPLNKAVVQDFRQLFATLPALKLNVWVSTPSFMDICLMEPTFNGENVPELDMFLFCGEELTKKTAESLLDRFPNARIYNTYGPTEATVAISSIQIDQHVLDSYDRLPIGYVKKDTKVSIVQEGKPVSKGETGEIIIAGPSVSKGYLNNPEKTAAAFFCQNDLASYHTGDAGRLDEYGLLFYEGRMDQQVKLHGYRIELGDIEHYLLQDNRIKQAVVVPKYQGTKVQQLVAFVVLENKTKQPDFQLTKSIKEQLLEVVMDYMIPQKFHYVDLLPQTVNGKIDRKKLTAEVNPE
Sequence of E. feacalis DltA (Q830N0 1-506): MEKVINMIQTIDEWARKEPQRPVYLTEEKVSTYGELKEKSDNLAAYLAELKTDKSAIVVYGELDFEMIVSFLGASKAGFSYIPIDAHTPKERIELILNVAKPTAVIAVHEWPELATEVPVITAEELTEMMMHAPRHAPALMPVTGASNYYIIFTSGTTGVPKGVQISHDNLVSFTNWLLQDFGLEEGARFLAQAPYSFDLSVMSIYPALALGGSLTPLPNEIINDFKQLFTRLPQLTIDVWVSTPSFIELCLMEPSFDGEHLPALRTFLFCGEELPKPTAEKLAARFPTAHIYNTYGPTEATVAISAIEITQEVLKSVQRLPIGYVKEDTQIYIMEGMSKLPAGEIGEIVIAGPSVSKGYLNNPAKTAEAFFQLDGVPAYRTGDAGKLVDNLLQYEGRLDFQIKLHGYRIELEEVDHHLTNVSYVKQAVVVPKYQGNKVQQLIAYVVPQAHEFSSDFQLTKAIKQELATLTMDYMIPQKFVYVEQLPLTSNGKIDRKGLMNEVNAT

What is called IC50 is the concentration that gives 50% inhibition. For `CN(C)C1CCCN(c2cc(-c3cnc4c(c3)CCCO4)c3nc[nH]c3c2C(N)=O)C1` (centres unmarked) [Example 222, 7-(3,4-dihydro-2H-pyrano[2,3-b]pyridin-6-yl)-5-[3-(dimethylamino)-1-piperidyl]-3H-benzimidazole-4-carboxamide], the IC50 on E. feacium DltA turned out to be 0.067 µM; at E. feacalis DltA it was 0.009 µM; at S. aureus DltA, 0.047 µM; on S. Agalactiae DltA it was 0.18 µM.

As to `CCn1cnc2cc(-c3cc(N(C)CCN(C)C)c(C(N)=O)c4[nH]cnc34)cc(F)c21` [Example 227, 5-[2-(dimethylamino)ethyl-methyl-amino]-7-(1-ethyl-7-fluoro-benzimidazol-5-yl)-3H-benzimidazole-4-carboxamide], the IC50 at E. feacium DltA was 0.083 µM; at E. feacalis DltA, 0.03 µM; at S. aureus DltA, 0.032 µM; at S. Agalactiae DltA, 1.3 µM.

Regarding `CN(C)CCN(C)c1cc(-c2cncc(N3CCCC3)c2)c2nc[nH]c2c1C(N)=O` [Example 230, 5-[2-(dimethylamino)ethyl-methyl-amino]-7-(5-pyrrolidin-1-yl-3-pyridyl)-3H-benzimidazole-4-carboxamide], the IC50 on E. feacium DltA worked out at 0.28 µM; at E. feacalis DltA, 0.03 µM; at S. aureus DltA, 0.064 µM; at S. Agalactiae DltA, 2.1 µM.

Turning to `CN1CCCC1COc1cc(-c2cnc3c(c2)CCCO3)c2nc[nH]c2c1C(N)=O` (centres unmarked) [Example 233, 7-(3,4-dihydro-2H-pyrano[2,3-b]pyridin-6-yl)-5-[(1-methylpyrrolidin-2-yl)methoxy]-3H-benzimidazole-4-carboxamide methanesulfonic acid salt], the concentration for half-maximal inhibition (IC50) was 0.024 µM at E. feacium DltA, 0.0047 µM at E. feacalis DltA, 0.0065 µM at S. aureus DltA and 0.13 µM at S. Agalactiae DltA.

As to `CN1CCC[C@@H]1COc1cc(-c2ccc3c(c2)ncn3C2CCCCC2)c2nc[nH]c2c1C(N)=O` [Example 236, 7-(1-cyclohexylbenzimidazol-5-yl)-5-[[(2R)-1-methylpyrrolidin-2-yl]methoxy]-3H-benzimidazole-4-carboxamide methanesulfonic acid salt], the IC50 at E. feacium DltA was determined as 0.0036 µM; at E. feacalis DltA it was 0.0014 µM; on S. aureus DltA it was 0.0004 µM; on S. Agalactiae DltA, 0.091 µM.
